Like-named read-outs stand apart in the source and are kept apart here.
Tests used:
Format in all cases: cell-based
MCF-7 cells = experiment: Breast cancer cell viability assay (CellTiter-Glo, 5 days); conditions: 5 days' compound exposure; for IC50: Homo sapiens, MCF7, 120 h
Summary of the method: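 MCF-7 cells, 320 per well in RPMI with 10% FBS and 20 mM HEPES, adhered overnight, then exposed 5 days to an eleven-point semilog dilution (final 0.3-0.000003 μM). CellTiter-Glo luminescence read; % viability = (sample − cell-free background)/(untreated − background) × 100.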

ER-α in MCF-7 cells [1] = molecular target: T1, ER-α in MCF-7 cells (Homo sapiens, UniProt P03372); experiment: Breast cancer cell ER-α in cell western assay (SP1); set-up: MCF-7 cells were adjusted to a concentration of 200,000 cells per mL; endogenous in cells; host or cells: MCF-7; conditions: 4 or 24 hr post compound addition; for Emax: MCF7, SP1 antibody, read-out: ER-α In Cell Western Assay (SP1) Max Response; for DC50: SP1 antibody, read-out: ER-α In Cell Western Assay (SP1) IC50
T1 sequence (P03372 1-595): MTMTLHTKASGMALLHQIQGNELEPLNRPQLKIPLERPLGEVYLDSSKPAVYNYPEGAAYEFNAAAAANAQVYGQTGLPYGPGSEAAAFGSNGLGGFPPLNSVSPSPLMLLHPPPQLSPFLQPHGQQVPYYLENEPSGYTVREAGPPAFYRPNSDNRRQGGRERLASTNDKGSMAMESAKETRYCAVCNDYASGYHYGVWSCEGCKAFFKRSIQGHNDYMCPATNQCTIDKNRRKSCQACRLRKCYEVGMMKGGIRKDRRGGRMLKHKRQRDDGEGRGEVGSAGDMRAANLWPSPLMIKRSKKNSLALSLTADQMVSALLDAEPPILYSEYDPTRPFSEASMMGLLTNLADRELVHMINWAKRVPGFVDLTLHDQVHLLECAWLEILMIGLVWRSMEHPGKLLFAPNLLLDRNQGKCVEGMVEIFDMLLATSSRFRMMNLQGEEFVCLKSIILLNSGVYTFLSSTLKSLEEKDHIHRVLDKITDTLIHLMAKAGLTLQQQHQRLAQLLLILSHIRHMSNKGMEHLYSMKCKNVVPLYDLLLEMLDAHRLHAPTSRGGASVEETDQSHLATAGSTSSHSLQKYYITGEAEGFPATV
Method: MCF-7 cells were adjusted to a concentration of 200,000 cells per mL in RPMI containing 10% charcoal-stripped FBS and 20 mM HEPES. 16 microliters of the cell suspension (3200 cells) was added to each well of a poly-D-lysine 384 well plate, and the cells were incubated overnight to allow the cells to adhere. The following day an eleven point, serial semilog dilution of each compound was added to the cells in 16 μL at a final concentration ranging from 0.3-0.000003 μM. At 4 or 24 hr post compound addition, the cells were fixed (10% formalin in PBS) for 20 minutes. Cells were permeablized in PBS 0.1% Triton and blocked with LICOR blocking buffer (50 μl/well, 90°). The wells were then incubated overnight at 4° C. with SP1 rabbit monoclonal Ab (Thermo Scientific) diluted 1:1000 in LICOR blocking buffer/0.1% Tween-20. Wells which were treated with blocking buffer with Tween but no antibody were used as a background control. Wells were washed with 0.1% Tween-20/PBS and then incubated in goat anti-rabbit IRDye™ 800CW (LICOR Inc.; 1:1000) and DRAQ5 DNA dye (1:2000 for 2 mM stock) diluted in LICOR blocking buffer containing 0.1% Tween-20 and 0.01% SDS for 60 minutes. Cells were washed (50 μl/well, 5′ each) in 0.1% Tween-20/PBS. Plates were scanned on a LICOR Odyssey infrared imaging system. Integrated intensities in the 800 nm channel and 700 nm channel were measured to determine levels of ER and DNA respectively. Percent ER levels were determined as follows: (Integrated intensity 800 nm sample/integrated intensity 700 nm sample)/(Integrated intensity 800 nm untreated cells/integrated intensity 700 nm untreated cells)×100=% ER levels.

ER-α in MCF-7 cells [2] = molecular target: T1, ER-α in MCF-7 cells; experiment: as above; set-up: endogenous in cells; host or cells: MCF-7; conditions: 4 or 24 hr post compound addition; for Emax: MCF7, SP1 antibody, read-out: ER-α In Cell Western Assay (SP1) Max Response; for DC50: SP1 antibody, read-out: ER-α In Cell Western Assay (SP1) IC50
Summary of the method: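 MCF-7, charcoal-stripped FBS/RPMI, 3200 cells/well, adhered overnight. Formalin fix, SP1 Ab o/n 4 °C, IRDye 800CW + DRAQ5; % ER = 800/700 ratio vs untreated.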

IC50 (MCF-7 cells) | Emax (ER-α in MCF-7 cells [1]) | DC50 (ER-α in MCF-7 cells [1]) | Emax (ER-α in MCF-7 cells [2]) | DC50 (ER-α in MCF-7 cells [2]) | Compound | MCF7 Viability Assay Max Response (MCF-7 cells)
> 0.1 µM | ≥ 40% | > 0.1 µM |  |  | CC/C(=C(/c1ccc(/C=C/C(=O)O)cc1)c1cn[nH]c1)c1ccccc1 [Compound 150] | + (+ = a single % value < 40%)
≤ 0.1 µM |  |  | ≥ 40% | ≤ 0.1 µM | CC/C(=C(/c1ccc(/C=C/c2nn[nH]n2)cc1)c1ccc2[nH]ncc2c1)c1ccccc1 [Compound 442, 5-((E)-1-(4-((E)-2-(2H-Tetrazol-5-yl)vinyl)phenyl)-2-phenylbut-1-en-1-yl)-1H-indazole] | ++ (++ = a single % value ≧ 40%)
≤ 0.1 µM |  |  | ≥ 40% | ≤ 0.1 µM | CC/C(=C(/c1ccc(/C=C/c2nn[nH]n2)cc1)c1ccc2[nH]ncc2c1)c1ccccc1Cl [Compound 443, 5-((E)-1-(4-((E)-2-(2H-Tetrazol-5-yl)vinyl)phenyl)-2-(2-chlorophenyl)but-1-en-1-yl)-1H-indazole] | ++ (++ = a single % value ≧ 40%)
≤ 0.1 µM |  |  | ≥ 40% | ≤ 0.1 µM | CC/C(=C(/c1ccc(/C=C/c2nn[nH]n2)cc1)c1ccc2scnc2c1)c1ccc(F)cc1Cl [Compound 445, 5-((E)-1-(4-((E)-2-(2H-Tetrazol-5-yl)vinyl)phenyl)-2-(2-chloro-4-fluorophenyl)but-1-en-1-yl)benzo[d]thiazole] | ++ (++ = a single % value ≧ 40%)
≤ 0.1 µM |  |  | ≥ 40% | ≤ 0.1 µM | CC/C(=C(/c1ccc2cc(C(=O)O)ccc2c1)c1ccc2[nH]ncc2c1)c1ccccc1 [Compound 449, (E)-6-(1-(1H-Indazol-5-yl)-2-phenylbut-1-en-1-yl)-2-naphthoic acid] | ++ (++ = a single % value ≧ 40%)
≤ 0.1 µM |  |  | ≥ 40% | ≤ 0.1 µM | CC/C(=C(/c1ccc(/C=C/C(=O)O)cc1)c1coc2c(O)cccc12)c1ccccc1 [Compound 451, (E)-3-(4-((E)-1-(7-Hydroxybenzofuran-3-yl)-2-phenylbut-1-en-1-yl)phenyl)acrylic acid] | ++ (++ = a single % value ≧ 40%)
≤ 0.1 µM |  |  | ≥ 40% | ≤ 0.1 µM | CC/C(=C(/c1ccc(/C=C/S(N)(=O)=O)cc1)c1ccc2[nH]ncc2c1)c1ccccc1 [Compound 452, (E)-2-(4-((E)-1-(1H-Indazol-5-yl)-2-phenylbut-1-en-1-yl)phenyl)ethenesulfonamide] | ++ (++ = a single % value ≧ 40%)
> 0.1 µM |  |  | ≥ 40% | > 0.1 µM | CC/C(=C(/c1ccc(/C=C/C(=O)O)cc1)c1cc(F)c2[nH]ncc2c1)c1cc[n+]([O-])cc1Cl [Compound 453, 4-((E)-1-(4-((E)-2-Carboxyvinyl)phenyl)-1-(7-fluoro-1H-indazol-5-yl)but-1-en-2-yl)-3-chloropyridine-1-oxide] | ++ (++ = a single % value ≧ 40%)

The next lines start with the compound.

Compound | IC50 (MCF-7 cells) | Emax (ER-α in MCF-7 cells [1]) | DC50 (ER-α in MCF-7 cells [1]) | Emax (ER-α in MCF-7 cells [2]) | DC50 (ER-α in MCF-7 cells [2]) | MCF7 Viability Assay Max Response (MCF-7 cells)
O=C(O)/C=C/c1ccc(/C(=C(\c2ccncc2Cl)C2CCC2)c2ccc3scnc3c2)cc1 [Compound 285] | ≤ 0.1 µM | ≥ 40% | ≤ 0.1 µM |  |  | ++ (++ = a single % value ≧ 40%)
CC/C(=C(/c1ccc(/C=C/c2nn[nH]n2)cc1)c1ccc2scnc2c1)c1ccccc1 [Compound 444, 5-((E)-1-(4-((E)-2-(2H-Tetrazol-5-yl)vinyl)phenyl)-2-phenylbut-1-en-1-yl)benzo[d]thiazole] | > 0.1 µM |  |  | ≥ 40% | ≤ 0.1 µM | ++ (++ = a single % value ≧ 40%)
CC/C(=C(/c1ccc(/C=C/c2nn[nH]n2)cc1)c1ccc2scnc2c1)c1ccncc1Cl [Compound 446, 5-((E)-1-(4-((E)-2-(2H-Tetrazol-5-yl)vinyl)phenyl)-2-(3-chloropyridin-4-yl)but-1-en-1-yl)benzo[d]thiazole] | ≤ 0.1 µM |  |  | ≥ 40% | ≤ 0.1 µM | ++ (++ = a single % value ≧ 40%)
CC/C(=C(/c1ccc(/C=C/c2nn[nH]n2)cc1)c1ccc2scnc2c1)c1cscc1C [Compound 447, 5-((E)-1-(4-((E)-2-(2H-Tetrazol-5-yl)vinyl)phenyl)-2-(4-methylthiophen-3-yl)but-1-en-1-yl)benzo[d]thiazole] | ≤ 0.1 µM |  |  | ≥ 40% | ≤ 0.1 µM | ++ (++ = a single % value ≧ 40%)
Cc1cscc1/C(=C(\c1ccc(/C=C/c2nn[nH]n2)cc1)c1ccc2scnc2c1)C1CCC1 [Compound 448, 5-((E)-1-(4-((E)-2-(2H-Tetrazol-5-yl)vinyl)phenyl)-2-cyclobutyl-2-(4-methylthiophen-3-yl)vinyl)benzo[d]thiazole] | ≤ 0.1 µM |  |  | ≥ 40% | ≤ 0.1 µM | ++ (++ = a single % value ≧ 40%)
CC/C(=C(/c1ccc(/C=C/C(=O)O)cc1)c1coc2c(O)cccc12)c1ccc(F)cc1Cl [Compound 450, (E)-3-(4-((E)-2-(2-Chloro-4-fluorophenyl)-1-(7-hydroxybenzofuran-3-yl)but-1-en-1-yl)phenyl)acrylic acid] | ≤ 0.1 µM |  |  | ≥ 40% | ≤ 0.1 µM | ++ (++ = a single % value ≧ 40%)

Reference: US9399646B2 (Genentech, Inc., priority 2010, dated 2016)
